Experimental data from patent publication US11731986B2 (Sanford Burnham Prebys Medical Discovery Institute, priority 2017, dated 2023).

Biological target: T1, human LMPTP-A (Homo sapiens, UniProt P24666)
T1 sequence (P24666 1-158): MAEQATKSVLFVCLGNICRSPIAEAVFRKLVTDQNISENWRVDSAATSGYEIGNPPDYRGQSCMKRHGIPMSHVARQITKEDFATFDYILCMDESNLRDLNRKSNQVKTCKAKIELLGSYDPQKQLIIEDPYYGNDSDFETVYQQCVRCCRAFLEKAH
Experiment: Enzyme Assay of Inhibition of LMPTP-A (phosphatase assay, OMFP or pNPP substrate)
Format: biochemical
Details: Bis-Tris pH 6.0, 37° C.
Method: Phosphatase assays were performed in buffer containing 50 mM Bis-Tris, pH 6.0, 1 mM DTT and 0.01% Triton X-100 at 37° C. For assays conducted with 3-O-methylfluorescein phosphate (OMFP) as substrate, fluorescence was monitored continuously at λex=485 and λem=525 nm. For assays conducted with para-nitrophenylphosphate (pNPP) as substrate, the reaction was stopped by addition of 2× reaction volume of 1 M NaOH, and absorbance was measured at 405 nm. IC50 values of compounds of Formula (I), (II), (III), or (IV) were determined from plots of inhibitor concentration versus percentage of enzyme activity. For inhibitor selectivity assays, each PTP was incubated with either 0.4 mM OMFP or 5 mM pNPP in the presence of 40 μM compound or DMSO. […] For the inhibitor reversibility assay, 50 nM human LMPTP-A was pre-incubated with 10 μM of compound of Formula (I), (II), (III), or (IV) or DMSO for 5 min. The enzyme was diluted 100× in phosphatase assay buffer containing 0.4 mM OMFP and fluorescence was measured at the indicated time points.

SMILES | IC50 [µM]
NC1CCN(C(=O)CCc2ccc(-c3cc(NCCCN4CCCCC4)c4cnccc4n3)cc2)CC1 | ≤ 1
O=C(NCCc1ccncc1)c1cc2ccc(-c3cc(NCCCN4CCCCC4)c4cnccc4n3)cc2[nH]1 | ≤ 1
CCNC1CCN(C(=O)CCc2ccc(-c3cc(NCCCN4CCCCC4)c4cnccc4n3)cc2)CC1 | ≤ 1
CN1CCCC(CCNC(=O)C#Cc2ccc(-c3cc(NCCCN4CCCCC4)c4cnccc4n3)cc2)CC1 (stereo not drawn) | 1 to 20
CCN(CC)C(=O)CNC(=O)CCc1ccc(-c2cc(NCCCN3CCCCC3)c3cnccc3n2)cc1 | ≤ 1
CN1CCC(N/C(=N\O)c2ccc(-c3cc(NCCCN4CCCCC4)c4cnccc4n3)cc2)CC1 | 1 to 20
O=C(c1nc2cc(-c3cc(NCCCN4CCCCC4)c4cnccc4n3)ccc2[nH]1)N1CCNCC1 | ≤ 1
CN1CCC(Nc2cc(-c3ccc4c(c3)cc(C(=O)NCCCN3CCCCC3)n4C)nc3ccncc23)CC1 [1-Methyl-5-(4-((1-methylpiperidin-4-yl)amino)-1,6-naphthyridin-2-yl)-N-(3-(piperidin-1-yl)propyl)-1H-indole-2-carboxamide] | 1 to 20
CN1CCC(CNC(=O)c2cc3cc(-c4cc(NC5CCN(C)CC5)c5cnccc5n4)ccc3n2C)CC1 [1-Methyl-5-(4-((1-methylpiperidin-4-yl)amino)-1,6-naphthyridin-2-yl)-N-((1-methylpiperidin-4-yl)methyl)-1H-indole-2-carboxamide] | ≤ 1
CC(CCN1CCCCC1)Nc1cc(-c2ccc3c(c2)cc(C(=O)NC2CCN(C)CC2)n3C)nc2ccncc12 (stereo not drawn) [1-Methyl-N-(1-methylpiperidin-4-yl)-5-(4-(4-(piperidin-1-yl)butan-2-ylamino)-1,6-naphthyridin-2-yl)-1H-indole-2-carboxamide] | 1 to 20
CN1CCC(NC(=O)c2cc3cc(-c4cc(NC5CCN(C)CC5)c5cnccc5n4)ccc3n2C)CC1 [1-Methyl-N-(1-methylpiperidin-4-yl)-5-(4-((1-methylpiperidin-4-yl)amino)-1,6-naphthyridin-2-yl)-1H-indole-2-carboxamide] | ≤ 1
Cn1c(C(=O)NC2CCSCC2)cc2cc(-c3cc(NCCCN4CCCCC4)c4cnccc4n3)ccc21 [1-methyl-5-(4-(3-(piperidin-1-yl)propylamino)-1,6-naphthyridin-2-yl)-N-(tetrahydro-2H-thiopyran-4-yl)-1H-indole-2-carboxamide] | ≤ 1
Cn1c(C(=O)NC2CCNCC2)cc2cc(-c3cc(NCc4ccc(CN5CCCCC5)cc4)c4cnccc4n3)ccc21 [1-methyl-5-(4-(4-(piperidin-1-ylmethyl)benzylamino)-1,6-naphthyridin-2-yl)-N-(piperidin-4-yl)-1H-indole-2-carboxamide] | ≤ 1
Cn1c(C(N)=O)cc2nc(-c3cc(NCCCN4CCCCC4)c4cnccc4n3)ccc21 [1-methyl-5-(4-((3-(piperidin-1-yl)propyl)amino)-1,6-naphthyridin-2-yl)-1H-pyrrolo[3,2-b]pyridine-2-carboxamide] | 1 to 20
Cn1c(C(=O)NCCc2ccncc2)cc2cc(-c3cc(NCCCN4CCCCC4)c4cnccc4n3)ccc21 [1-methyl-5-(4-((3-(piperidin-1-yl)propyl)amino)-1,6-naphthyridin-2-yl)-N-(2-(pyridin-4-yl)ethyl)-1H-indole-2-carboxamide] | ≤ 1
Cn1c(C(=O)NC2CCNCC2)cc2cc(-c3cc(NCCCN4CCCCC4)c4cnccc4n3)ccc21 [1-methyl-5-(4-((3-(piperidin-1-yl)propyl)amino)-1,6-naphthyridin-2-yl)-N-(piperidin-4-yl)-1H-indole-2-carboxamide] | ≤ 1
Cn1c(C(=O)NC2CCOCC2)cc2cc(-c3cc(NCCCN4CCCCC4)c4cnccc4n3)ccc21 [1-methyl-5-(4-((3-(piperidin-1-yl)propyl)amino)-1,6-naphthyridin-2-yl)-N-(tetrahydro-2H-pyran-4-yl)-1H-indole-2-carboxamide] | ≤ 1
CN1CCC(NC(=O)c2cc3cc(-c4cc(N(C)CCCN5CCCCC5)c5cnccc5n4)ccc3n2C)CC1 [1-methyl-5-(4-(methyl(3-(piperidin-1-yl)propyl)amino)-1,6-naphthyridin-2-yl)-N-(1-methylpiperidin-4-yl)-1H-indole-2-carboxamide] | 1 to 20

SMILES | IC50 [µM]
CNc1cc(-c2ccc3c(c2)cc(C(N)=O)n3C)nc2ccncc12 [1-methyl-5-(4-(methylamino)-1,6-naphthyridin-2-yl)-1H-indole-2-carboxamide] | 1 to 20
CNc1cc(-c2ccc3c(c2)cc(C(=O)NC2CCN(C)CC2)n3C)nc2ccncc12 [1-methyl-5-(4-(methylamino)-1,6-naphthyridin-2-yl)-N-(1-methylpiperidin-4-yl)-1H-indole-2-carboxamide] | 1 to 20
CN1CCC(NC(=O)c2cc3cc(-c4cc(OCCCN5CCCCC5)c5cnccc5n4)ccc3n2C)CC1 [1-methyl-N-(1-methylpiperidin-4-yl)-5-(4-(3-(piperidin-1-yl)propoxy)-1,6-naphthyridin-2-yl)-1H-indole-2-carboxamide] | 1 to 20
CN1CCC(NC(=O)c2cc3cc(-c4cc(NCc5ccc(CN6CCCCC6)cc5)c5cnccc5n4)ccc3n2C)CC1 [1-methyl-N-(1-methylpiperidin-4-yl)-5-(4-(4-(piperidin-1-ylmethyl)benzylamino)-1,6-naphthyridin-2-yl)-1H-indole-2-carboxamide] | ≤ 1
CN1CCC(NC(=O)c2cc3cc(-c4cc(NCCCN5CCCCC5)c5cnccc5n4)ccc3n2C)CC1 [1-methyl-N-(1-methylpiperidin-4-yl)-5-(4-((3-(piperidin-1-yl)propyl)amino)-1,6-naphthyridin-2-yl)-1H-indole-2-carboxamide] | ≤ 1
CN1CCC(NC(=O)c2cc3cc(-c4cc(Nc5ccc(CN6CCCC6)cc5)c5cnccc5n4)ccc3n2C)CC1 [1-methyl-N-(1-methylpiperidin-4-yl)-5-(4-((4-(pyrrolidin-1-ylmethyl)phenyl)amino)-1,6-naphthyridin-2-yl)-1H-indole-2-carboxamide] | ≤ 1
CCCNc1cc(-c2ccc3c(c2)cc(C(=O)NC2CCN(C)CC2)n3C)nc2ccncc12 [1-methyl-N-(1-methylpiperidin-4-yl)-5-(4-(propylamino)-1,6-naphthyridin-2-yl)-1H-indole-2-carboxamide] | ≤ 1
CN1CCN(CCCNC(=O)c2cc3cc(-c4cc(NCCCN5CCCCC5)c5cnccc5n4)ccc3n2C)CC1 [1-methyl-N-(3-(4-methylpiperazin-1-yl)propyl)-5-(4-((3-(piperidin-1-yl)propyl)amino)-1,6-naphthyridin-2-yl)-1H-indole-2-carboxamide] | ≤ 1
CN1CCC(CNC(=O)c2cc3cc(-c4cc(NCc5ccc(CN6CCCCC6)cc5)c5cnccc5n4)ccc3n2C)CC1 [1-methyl-N-((1-methylpiperidin-4-yl)methyl)-5-(4-(4-(piperidin-1-ylmethyl)benzylamino)-1,6-naphthyridin-2-yl)-1H-indole-2-carboxamide] | ≤ 1
O=C(COCc1ccc(-c2cc(NCCCN3CCCCC3)c3cnccc3n2)cc1)NCC1CCNCC1 [2-(4-(4-(3-(piperidin-1-yl)propylamino)-1,6-naphthyridin-2-yl)benzyloxy)-N-(piperidin-4-ylmethyl)acetamide] | ≤ 1
CCN1CCC(CNC(=O)CCOc2ccc(-c3cc(N(CC)CCCN4CCCCC4)c4cnccc4n3)cc2)CC1 [3-(4-(4-(ethyl(3-(piperidin-1-yl)propyl)amino)-1,6-naphthyridin-2-yl)phenoxy)-N-((1-ethylpiperidin-4-yl)methyl)propanamide] | ≥ 20
CCN(CC)C(=O)c1ccc(-c2cc(NCCCN3CCCCC3)c3cnccc3n2)c(C#N)c1 [3-cyano-N,N-diethyl-4-(4-((3-(piperidin-1-yl)propyl)amino)-1,6-naphthyridin-2-yl)benzamide] | 1 to 20
CN1CCC(NC(=O)c2ccc(-c3cc(NCCCN4CCCCC4)c4cnccc4n3)c(C#N)c2)CC1 [3-cyano-N-(1-methylpiperidin-4-yl)-4-(4-((3-(piperidin-1-yl)propyl)amino)-1,6-naphthyridin-2-yl)benzamide] | 1 to 20
CCN(CC)C(=O)c1ccc(-c2cc(Nc3ccc(CN(C)C)cc3)c3cnccc3n2)cc1 [4-(4-(4-((Dimethylamino)methyl)phenylamino)-1,6-naphthyridin-2-yl)-N,N-diethylbenzamide] | 1 to 20
CCN(CC)C(=O)c1ccc(-c2cc(Nc3ccc(N(C)C)cc3)c3cnccc3n2)cc1 [4-(4-(4-(Dimethylamino)phenylamino)-1,6-naphthyridin-2-yl)-N,N-diethylbenzamide] | 1 to 20
CN1CCC(Nc2cc(-c3ccc(C(=O)NCCCN4CCCCC4)cc3)nc3ccncc23)C1 (stereo not drawn) [4-(4-((1-Methylpyrrolidin-3-yl)amino)-1,6-naphthyridin-2-yl)-N-(3-(piperidin-1-yl)propyl)benzamide] | 1 to 20
CCN(CC)C(=O)c1ccc(-c2cc(NCCN3CCS(=O)(=O)CC3)c3cnccc3n2)cc1 [4-(4-((2-(1,1-Dioxidothiomorpholino)ethyl)amino)-1,6-naphthyridin-2-yl)-N,N-diethylbenzamide] | 1 to 20
CCN(CC)C(=O)c1ccc(-c2cc(NCCN(C)C)c3cnccc3n2)cc1 [4-(4-((2-(Dimethylamino)ethyl)amino)-1,6-naphthyridin-2-yl)-N,N-diethylbenzamide] | 1 to 20
